Measurements from article PMC9551036, “A selective and orally bioavailable VHL-recruiting PROTAC achieves SMARCA2 degradation in vivo” (Nature Communications, 2022).
Where “and” joins values, the source holds several entries; their conditions need not be identical. Equal values may be shown once.

Columns and labels:
[1] = system: VCB: PROTAC: SMARCA2^BD ternary complex; experiment: TR-FRET ternary complex affinity and cooperativity, SMARCA2; format: binding, human; details: ratio TR-FRET EC50 / TR-FRET EC50 +VCB measured in the same run, SMARCA2BD
[2] = molecular target: T1, VCB complex (Homo sapiens, UniProt P40337); experiment: SPR binary binding to immobilised VCB complex
T1 construct: His6 (TEV site) (N, cleaved yes); made in house
Method: SMARCA4^BD was provided by the Structural Genomics Consortium (SGC), Toronto[32] and SMARCA2^BD and PRM1^BD5 were synthesised by GeneArt then subcloned into pDEST15 vectors (Invitrogen). The VCB complex was expressed and purified as described previously, with the modification that 0.3 mM IPTG was used for induction of expression. […] Both were stored in 20 mM 4-(2-hydroxyethyl)−1-piperazineethanesulfonic acid (HEPES), 150 mM sodium chloride and 1 mM tris(2-carboxyethyl)phosphine (TCEP) pH 7.5. SMARCA2^BD, SMARCA4^BD and PBRM1^BD5 were expressed in Escherichia coli BL21(DE3) as N-terminal GST fusion proteins with a TEV protease cleavage site. Expression and purification of these proteins has been described previously[32],[33]. Starter cultures were grown overnight at 37 °C in 10 mL of Luria-Bertani (LB) medium with ampicillin (100 μg/mL). The starter cultures were diluted (1:100) in Terrific Broth (TB) medium with ampicillin (100 μg/mL) and grown in a shaking incubator at 37 °C to an optical density (OD600) ~1 before the temperature was lowered for induction (to 23 °C for SMARCA2^BD or 18 °C for SMARCA4^BD and PRRM1^BD5). […] Cells were harvested by centrifugation and stored at −80 °C prior to purification. […] The Lysis buffers were as follows: for SMARCA2^BD: 50 mM HEPES, 500 mM sodium chloride, 5% glycerol, 5 mM dithiothreitol (DTT); for SMARCA4^BD: 25 mM HEPES, 0.3 M sodium chloride, 5% glycerol, 10 mM DTT, pH 7.5; for PBRM1^BD5: 25 mM HEPES, 300 mM sodium chloride, 5% glycerol, 10 mM DTT, pH 7.8; in each case supplemented with complete protease inhibitors (Roche). Affinity purification was performed using Glutathione Sepharose 4B (GE Healthcare) in batch mode or on-column. […] For SMARCA2^BD, prior to TEV protease cleavage the eluted GST-tagged BD was first dialysed into desalting buffer (20 mM HEPES, 250 mM sodium chloride, pH 7.0 + 0.5% glycerol). Where TEV cleavage was performed in solution, a second affinity (GST-trap) column purification step was carried out to remove the GST-tag and uncleaved GST-tagged protein. Proteins were further purified by SEC (HiLoad Superdex-75, 16/600) (GE Healthcare) and stored in Storage buffer (for SMARCA2^BD: 20 mM HEPES, 150 mM sodium chloride, pH 7.5; for SMARCA4^BD: 10 mM HEPES, 0.5 M NaCl, 5% glycerol, pH 7.5; for PBRM1^BD5: 20 mM HEPES, 300 mM NaCl, 5 mM DTT, pH 7.8). For AlphaScreen assays, eluted GST-tagged BDs were purified directly by SEC in the respective storage buffers without TEV cleavage. All chromatography purification steps were performed either at room temperature or 4 °C using an ÄKTA FPLC purification system (GE Healthcare) or a plastic Econo-Pac column (Bio-Rad).
SPR data were acquired on Biacore 8K or T200 instruments (Cytiva). Target proteins were immobilised at 25 °C on CM5 chips by amine coupling (EDC/NHS, Cytiva) in HBS-P+ running buffer (pH 7.4), containing 2 mM TCEP. […] The reference surface was subsequently deactivated using 1 M ethanolamine. […] Biotinylated VCB was prepared as previously described[27]: in brief, the complex was mixed 1:1 with EZ-Link NHS–PEG4–biotin (Thermo Scientific) and incubated at room temperature for 1 h. Unreacted NHS-biotin was removed using a PD-10 desalting column (Cytiva) into 20 mM HEPES, pH 7.5, 150 mM sodium chloride and 1 mM DTT. The reference surface was generated by deactivating the EDC/NHS-treated surface with 1 M ethanolamine. All interaction experiments were done at 6 °C in running buffer (20 mM TRIS, pH 8.3, 150 mM potassium chloride, 2 mM magnesium chloride, 2 mM TCEP, 0.005% TWEEN 20, 1% dimethyl sulfoxide). For ternary complex measurements, a sensor chip surface with VCB immobilised was used (preparation as described above). Experiments were run in dual-inject mode with 10 µM SMARCA present during the injection and dissociation phase. Sensorgrams from reference surfaces and blank injections were subtracted from the raw data prior to data analysis using Biacore Insight software.

[3] = Microsomal stability; format: in vitro ADME; details: for Mic. Stab. Human / Mic. Stab. Human QH: human liver microsomes; for Mic. Stab. Mouse / Mic. Stab. Mouse QH: mouse liver microsomes; for Mic. Stab. Rat / Mic. Stab. Rat QH: rat liver microsomes
Method: […] Reactions were terminated by addition of acetonitrile and precipitates separated by centrifugation. Compound concentrations in supernatants were measured by HPLC-MS/MS and clearance was calculated from compound half-lives using the well-stirred liver model.

[4] = system: Caco-2 cell monolayer; experiment: Bidirectional permeability measurement in Caco-2 cells; format: in vitro ADME
Method: Bidirectional permeability of test compounds across a Caco-2 cell monolayer was measured as described[43] with a modification of preincubation time[44]: Briefly, Caco-2 cells were seeded onto Transwell inserts (#3379, Corning, Wiesbaden, Germany) at a density of 160000 cells/cm^2 and cultured in DMEM (high glucose) containing 10% fetal bovine serum for 14–21 days. Cells were incubated with culture media containing 1 µM test compound for 24 h. […] Samples were taken at different time points for up to 2 h. Test compound in the samples was quantified with LC-MS/MS. To elucidate the role of drug transporter P-gp in the transcellular transport, permeability measurement was performed in the absence and presence of the selective P-gp inhibitor zosuquidar (5 µM final concentration). Apparent permeability coefficients (Papp,AB, Papp,BA) were calculated as follows:1 Papp,AB=Q_AB/C0×s×t 2 Papp,BA=Q_BA/C0×s×t where Q is the amount of compound recovered in the receiver compartment after the incubation time t, C0 the initial compound concentration given to the donor compartment, and s the surface area of the Transwell inserts. Efflux ratio is calculated as the quotient of Papp,BA (mean of duplicate) to Papp,AB (mean of duplicate). […] In addition, Transepithelial electrical resistance (TEER) values were measured for each plate before the permeability assay. All three parameters (efflux of the reference substrates, Papp values of the low permeable compound, and TEER values) were used to ensure the quality of the assays.

[5] = binary binding to VCB, mean ± SD

T1 sequence (P40337 54-213): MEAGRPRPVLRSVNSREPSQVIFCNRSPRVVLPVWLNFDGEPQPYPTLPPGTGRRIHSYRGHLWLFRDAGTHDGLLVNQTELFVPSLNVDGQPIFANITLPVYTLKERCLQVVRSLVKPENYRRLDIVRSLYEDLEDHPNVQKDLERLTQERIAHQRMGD
T1 sequence (Q15369 17-112 partner limits assumed): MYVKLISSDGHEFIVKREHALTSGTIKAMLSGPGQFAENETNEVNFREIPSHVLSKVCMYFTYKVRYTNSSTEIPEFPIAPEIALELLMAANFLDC
T1 sequence (Q15370 1-104 partner limits assumed): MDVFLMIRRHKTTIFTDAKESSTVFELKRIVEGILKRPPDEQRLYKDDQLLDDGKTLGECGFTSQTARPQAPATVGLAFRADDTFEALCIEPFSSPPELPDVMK

SMILES | cooperativity α (SMARCA2BD) [1] | Kd [2, 5] [nM] | Kd ([2]; binary, individual replicates) | Mic. Stab. Human [3] [% QH] | Mic. Stab. Human QH [3] | Mic. Stab. Mouse [3] [% QH] | Mic. Stab. Mouse QH [3] | Mic. Stab. Rat [3] [% QH] | Mic. Stab. Rat QH [3] | Caco-2 Pab ([4]; Caco-2) | Caco-2 Pab ([4]; Caco-2, a to b) | other results
Cc1ncsc1-c1ccc([C@H](CC[C@@H](C)CCN2CCC(c3ccc4c(c3)n(C3CCCC3)c3nc(=O)c5c(Br)cccc5n43)CC2)NC(=O)[C@@H]2C[C@@H](O)CN2C(=O)[C@@H](NC(=O)C2(F)CC2)C(C)(C)C)cc1 [compound 29] | 6.4 ± 1.1 | 13 ± 7 | 21.3 nM and 18.2 nM and 7.09 nM and 8.27 nM and 5.72 nM and 14.8 nM | <24 | <24.400 <24.400% | <24 | <24.200 <24.200% | <23 | <23.100 <23.100% | 2 ± 0.2 10-6 cm/s | 1.9e-06 cm/s and < 1.9e-06 cm/s and 2.4e-06 cm/s | 
Cc1ncsc1-c1ccc([C@H](COC(C)CN2CCC(c3ccc4c(c3)n(C3CCCC3)c3nc(=O)c5c(Br)cccc5n43)CC2)NC(=O)[C@@H]2C[C@@H](O)CN2C(=O)[C@@H](NC(=O)C2(N(C)C)CC2)C(C)(C)C)cc1 (some centres unmarked) [compound 10] | 10.1 ± 3.8 | 124 ± 97 | 76.7 nM and 269 nM and 65.4 nM and 86 nM | 86 | 85.500% | 68 ± 2 | 66.900% and 69.700% | 51 ± 2 | 49.700% and 52.900% | 6 10-6 cm/s |  | Caco-2 Efflux ratio ([4]; Caco-2): 5; Caco-2 Pba ([4]; Caco-2, b to a): 21 ×10⁻⁶ cm/s; Modified Caco-2 Efflux ratio ([4]; Modified Caco-2): 36; Modified Caco-2 Pba ([4]; Modified Caco-2, b to a): 99 ×10⁻⁶ cm/s and 88 ×10⁻⁶ cm/s
Cc1ncsc1-c1ccc([C@H](CCCCN2CCC(c3ccc4c(c3)n(C3CCCC3)c3nc(=O)c5c(Br)cccc5n43)CC2)NC(=O)[C@@H]2C[C@@H](O)CN2C(=O)[C@@H](NC(=O)C2(F)CC2)C(C)(C)C)cc1 [compound 25] | 2.2 ± 0.6 | 6 ± 1 | 6.94 nM and 6.43 nM and 5.3 nM | 25 | 24.800% | <24 | <24.200% | <23 | <23.100% | <4 10-6 cm/s | <4.3e-06 cm/s | 
Cc1ncsc1-c1ccc([C@H](CCCCCN2CCC(c3ccc4c(c3)n(C3CCCC3)c3nc(=O)c5c(Br)cccc5n43)CC2)NC(=O)[C@@H]2C[C@@H](O)CN2C(=O)[C@@H](NC(=O)C2(F)CC2)C(C)(C)C)cc1 [compound 11] | 5.3 ± 2.1 | 9 ± 3 | 11.2 nM and 11.4 nM and 9.47 nM and 7.94 nM and 8.34 nM and 7.19 nM and 5.73 nM and 11.9 nM and 4.42 nM | <24 | <24.400 <24.400 <24.400 <24.400% | <24 | <24.200 <24.200 <24.200 <24.200 <24.200 <24.200 <24.200 <24.200% | <23 | <23.100 <23.100 <23.100 <23.100 <23.100 <23.100 <23.100 <23.100% |  |  | microsomal stability [3]: good microsomal stability; Caco-2 permeability [4]: improved permeability; efflux ratio ([4]; Caco-2): high efflux ratio; Modified Caco-2 + PGPi (Zosuquidar) Pab ([4]; Modified Caco-2 + PGPi (Zosuquidar)): 11 ± 3 10-6 cm/s; Modified Caco-2 Pab + PGPi (Zosuquidar) ([4]; Modified Caco-2, a to b, + PGPi (Zosuquidar)): 12 ×10⁻⁶ cm/s and 16 ×10⁻⁶ cm/s and 9 ×10⁻⁶ cm/s and 8.7 ×10⁻⁶ cm/s; Modified Caco-2 Pba + PGPi (Zosuquidar) ([4]; Modified Caco-2, b to a, + PGPi (Zosuquidar)): 19 ×10⁻⁶ cm/s
Cc1ncsc1-c1ccc([C@H](COCCN2CCC(c3ccc4c(c3)n(C3CCCC3)c3nc(=O)c5c(Br)cccc5n43)CC2)NC(=O)[C@@H]2C[C@@H](O)CN2C(=O)[C@@H](NC(=O)C2(N(C)C)CC2)C(C)(C)C)cc1 [compound 26] | 5.8 ± 1.9 | 76 ± 46 | 55.5 nM and 144 nM and 50.1 nM and 53.4 nM | 86 ± 0.3 | 86.500% and 86.000% and 86.480% | >88 | > 88.400% and 90.900% | 58 ± 3 | 60.400% and 54.700% and 57.700% |  | <2.7e-06 cm/s | 
Cc1ncsc1-c1ccc(CNC(=O)[C@@H]2C[C@@H](O)CN2C(=O)[C@@H](NC(=O)C2(F)CC2)C(C)(C)C)c(OCCN2CCC(c3ccc4c(c3)n(C3CCCC3)c3nc(=O)c5c(Br)cccc5n43)CC2)c1 [compound 20] | 0.6 ± 0.2 | 9 ± 7 | 6.64 nM and 20.3 nM and 5.1 nM and 5.19 nM | 89 ± 7 | 92.780% and 92.740% and 91.810% and 92.050% and 77.420% | 76 ± 2 | 73.270% and 75.530% and 75.780% and 78.330% | 33 ± 3 | 34.870% and 29.970% and 29.780% and 36.100% and < 23.080% | <0.4 10-6 cm/s | <4.04e-07 cm/s | 
Cc1ncsc1-c1ccc(CNC(=O)[C@@H]2C[C@@H](O)CN2C(=O)[C@@H](NC(=O)C2(F)CC2)C(C)(C)C)c(OCCOCCOCCOCCN2CCC(c3ccc4c(c3)n(C3CCCC3)c3nc(=O)c5c(Br)cccc5n43)CC2)c1 [compound 22] | 2.8 ±0.8 | 39 ± 16 | 31.8 nM and 62.9 nM and 29.3 nM and 33 nM | 83 ± 13 | 92.060% and 73.150% | 58 | 57.720% | 40 | 40.440% | <0.3 10-6 cm/s | <2.78e-07 cm/s | 
